According to ChEMBL document CHEMBL5360570, “Discovery of pyrazolo[3,4-b]pyridine derivatives as novel and potent Mps1 inhibitors for the treatment of cancer” (Eur J Med Chem, 2023):

Columns and labels:
[1] = target: T1, Dual specificity protein kinase TTK (Homo sapiens, UniProt P33981); test: Inhibition of Mps1 (unknown origin) pretreated for 10 mins followed by substrate addition and measured after 60 mins in presence of ATP by ADP-glo kinase assay
T1 sequence (P33981 whole entry): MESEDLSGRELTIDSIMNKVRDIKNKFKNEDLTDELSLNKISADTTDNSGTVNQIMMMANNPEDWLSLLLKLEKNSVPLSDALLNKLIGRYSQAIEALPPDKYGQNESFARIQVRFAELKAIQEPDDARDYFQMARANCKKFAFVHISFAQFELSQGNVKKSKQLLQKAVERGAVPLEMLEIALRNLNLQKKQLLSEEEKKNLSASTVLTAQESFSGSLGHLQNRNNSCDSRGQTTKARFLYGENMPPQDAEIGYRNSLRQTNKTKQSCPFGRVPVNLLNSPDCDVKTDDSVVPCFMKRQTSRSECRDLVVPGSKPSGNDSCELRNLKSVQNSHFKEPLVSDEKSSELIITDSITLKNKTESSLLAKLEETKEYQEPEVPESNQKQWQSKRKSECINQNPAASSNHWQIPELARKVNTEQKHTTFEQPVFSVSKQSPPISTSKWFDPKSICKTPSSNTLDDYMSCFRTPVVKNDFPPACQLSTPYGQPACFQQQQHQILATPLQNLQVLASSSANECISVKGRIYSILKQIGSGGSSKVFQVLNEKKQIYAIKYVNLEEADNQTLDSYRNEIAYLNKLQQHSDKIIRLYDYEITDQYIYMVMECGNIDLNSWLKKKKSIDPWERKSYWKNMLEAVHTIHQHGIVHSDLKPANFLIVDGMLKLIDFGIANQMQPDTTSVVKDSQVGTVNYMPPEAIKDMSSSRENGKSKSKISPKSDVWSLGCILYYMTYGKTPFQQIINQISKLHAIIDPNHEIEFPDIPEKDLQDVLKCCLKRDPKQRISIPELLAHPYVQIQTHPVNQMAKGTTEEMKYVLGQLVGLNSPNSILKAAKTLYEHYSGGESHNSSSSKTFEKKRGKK

MDA-MB-468 [2] = test: Antiproliferative activity against human MDA-MB-468 cells assessed inhibition of cell growth at 2 uM incubated for 72 hrs by CCK-8 assay relative to control; assay type: functional
[3] = Metabolic stability in human liver microsome assessed as intrinsic clearance preincubated for 10 mins followed by NADPH addition and measured upto 60 mins by LC-MS/MS analysis; assay type: ADME; details: liver microsomes, time < 70 min, read-out: CLH
[4] = Metabolic stability in human liver microsome assessed as half life preincubated for 10 mins followed by NADPH addition and measured upto 60 mins by LC-MS/MS analysis; assay type: ADME; details: liver microsomes, time < 70 min
[5] = Metabolic stability in human microsome assessed as intrinsic clearance preincubated for 10 mins followed by NADPH addition and measured upto 60 mins by LC-MS/MS analysis; assay type: ADME; details: microsomes, time < 70 min
MDA-MB-231 = test: Antiproliferative activity against human MDA-MB-231 cells assessed inhibition of cell growth incubated for 72 hrs by CCK-8 assay; assay type: functional
MV4-11 = test: Antiproliferative activity against human MV4-11 cells assessed inhibition of cell growth incubated for 72 hrs by CCK-8 assay relative to control; assay type: functional
[6] = Antiproliferative activity against human RBE cells assessed inhibition of cell growth incubated for 72 hrs by CCK-8 assay relative to control; assay type: functional
MCF7 = test: Antiproliferative activity against human MCF7 cells assessed inhibition of cell growth incubated for 72 hrs by CCK-8 assay relative to control; assay type: functional
[7] = target: T2, Dual specificity protein kinase TTK (Homo sapiens) (UniProt P33981); test: Inhibition of Mps1 (unknown origin) at 1000 nM pretreated for 10 mins followed by substrate addition and measured after 60 mins in presence of ATP by ADP-glo kinase assay relative to control; details: time 70.0 min
T2 sequence (whole entry): T1 sequence (P33981 whole entry)

MDA-MB-468 [8] = test: cells; assay type: functional, cell-based; details: Homo sapiens, MDA-MB-468, 72 h
Description: Antiproliferative activity against human MDA-MB-468 cells assessed inhibition of cell growth incubated for 72 hrs by CCK-8 assay

HCT-116 = test: Antitumor activity against human HCT-116 cells xenografted in mouse assessed as tumor growth inhibition at 6.5 mg/kg, po; assay type: functional; details: read-out: TGI
MDA-MB-468 [9] = test: Antitumor activity against human MDA-MB-468 cells xenografted in BALB/c nude mouse assessed as tumor growth inhibition at 30 mg/kg, iv administered once daily for 21 days; assay type: functional; details: MDA-MB-468, 504 h, time 21 day, read-out: TGI
[10] = target: T1, Dual specificity protein kinase TTK; test: Inhibition of MPS1 (unknown origin)

IC50 [1] [nM]	inhibition [7] [%]	SMILES	inhibition at 2 µM (MDA-MB-468 [2]) [%]	inhibition (INH) (MDA-MB-231) [%]	inhibition (INH) (MV4-11) [%]	inhibition (INH) [6] [%]	inhibition (INH) (MCF7) [%]	other results
> 1000		C=CC(=O)Nc1cc(N2CCN(C(C)=O)CC2)ccc1Nc1nc(-n2ccc(C(=O)Nc3c(CC)cccc3CC)c2)c2cn[nH]c2n1	-2.46					
> 1000		C#CC(=O)Nc1cc(N2CCN(C(C)=O)CC2)ccc1Nc1nc(-n2ccc(C(=O)Nc3c(CC)cccc3CC)c2)c2cn[nH]c2n1	7.17					
		O=C(O)Cc1ccccc1Nc1c(Cl)cccc1Cl [DICLOFENAC]						CLint scaled [3]: 113 mL/min/kg; half-life [4]: 11 min; microsomal CLint [5]: 126 µL/min/mg
3.37		CCc1cccc(CC)c1NC(=O)c1ccn(-c2nc(Nc3ccc(N4CCN(C)CC4)cc3OC)nc3[nH]ncc23)c1	64.3					
	63.9	COc1cc(N2CCN(C)CC2)ccc1Nc1nc(OC2CCCC2)c2c(-c3ccc(OC)c(OC)c3)n[nH]c2n1	40.7	24.33	-3.55	4.83	17.07	
	49.1	COc1cc(N2CCCCC2)ccc1Nc1nc(OC2CCCC2)c2c(-c3ccc(OC)c(OC)c3)n[nH]c2n1	-3.15	25.74	-21.2	16.61	16.66	
4.84	84.7	COc1cc(N2CCC(N(C)C)CC2)ccc1Nc1nc(OC2CCCC2)c2c(-c3ccc(OC)c(OC)c3)n[nH]c2n1	94.3	72.16	21.89	36.32	25.87	IC50 (MDA-MB-468 [8]): 1270 nM
3.81		COc1cc(N2CCN(C)CC2)ccc1Nc1nc(-n2ccc(C(=O)Nc3c(C)cccc3C)c2)c2cn[nH]c2n1						IC50 (MDA-MB-468 [8]): 857 nM
		COc1cc(OC2CCN(C)CC2)ccc1Nc1ncc2c(n1)n(C1CCCC1)c(=O)n2C		57.08				IC50 (MDA-MB-468 [8]): 2100 nM
	51.2	COc1cc(N2CCN(C(C)=O)CC2)ccc1Nc1nc(OC2CCCC2)c2c(-c3ccc(OC)c(OC)c3)n[nH]c2n1	81.5	26.44	8.63	39.75	17.16	IC50 (MDA-MB-468 [8]): 1000 nM
> 1000		CCc1cccc(CC)c1NC(=O)c1ccn(-c2nc(Nc3ccc(N4CCOCC4)cc3N3CCN(C)CC3)nc3[nH]ncc23)c1	-1.94					
	35.7	COc1ccc(-c2n[nH]c3nc(Nc4ccc(N5CCC(N(C)C)CC5)cc4OC)nc(OC4CCCC4)c23)cc1	5.57	10.57	-10.86	7.85	10.76	
		Cc1cc(-c2cnn3c(NC[C@H]4C[C@@](C)(O)C4)cc(Oc4cccnc4)nc23)ccc1C(=O)NC1CC1 [LUVIXASERTIB]						inhibition in vivo at 6.5 mg/kg (HCT-116): 68%
8.52		COc1cc(N2CCN(C(C)=O)CC2)ccc1Nc1nc(-n2ccc(C(=O)Nc3c(C)cccc3C)c2)c2cn[nH]c2n1	34.8					
6.14		CCc1cccc(CC)c1N1CCn2cc(-c3nc(Nc4ccc(N5CCOCC5)cc4OC)nc4[nH]ncc34)cc2C1=O						IC50 (MDA-MB-468 [8]): 663 nM
> 1000		C=CC(=O)Nc1cc(NC(=O)CC)ccc1Nc1nc(-n2ccc(C(=O)Nc3c(CC)cccc3CC)c2)c2cn[nH]c2n1	5.51					
	63.9	COc1cc(N2CCC(N(C)C)CC2)ccc1Nc1nc(OC2CC2)c2c(-c3ccc(OC)c(OC)c3)n[nH]c2n1	30	35.24	-17.18	14.2	20.26	
> 1000		C=CC(=O)Nc1cc(N2CCN(C(C)=O)CC2)ccc1Nc1nc(-c2cc3n(c2)CCN(c2c(CC)cccc2CC)C3=O)c2cn[nH]c2n1	0.38					
> 1000		CCc1cccc(CC)c1NC(=O)c1ccn(-c2nc(Nc3ccc(N4CCN(C(C)=O)CC4)cc3NC(C)=O)nc3[nH]ncc23)c1	-2.92					
	59.9	COc1cc(N2CCOCC2)ccc1Nc1nc(OC2CCCC2)c2c(-c3ccc(OC)c(OC)c3)n[nH]c2n1	69.7	21.19	-22.73	11.97	10.48	IC50 (MDA-MB-468 [8]): 2090 nM
		COc1ccc(Oc2cc(NCCC(F)(F)F)c3ncc(-c4ccc(C(=O)NC5CC5)c(C)c4)n3n2)c(F)c1F [BAY-1217389]		61.14				inhibition in vivo at 30 mg/kg (MDA-MB-468 [9]): 67%
		COCCCNC(=O)c1cc(-c2ccc(OC)c(OC)c2)nc2[nH]nc(-c3ccc(OC)cc3)c12						IC50 [10]: 391 nM
	15.2	COc1ccc(-c2n[nH]c3nc(Nc4ccccc4)nc(OC4CCCC4)c23)cc1OC	19.9	26.44	-13.46	4.28	4.54	
	70.7	COc1cc(N2CCC(N(C)C)CC2)ccc1Nc1nc(OC2CCCCC2)c2c(-c3ccc(OC)c(OC)c3)n[nH]c2n1	68.5	66.51	20.47	28.45	25.38	
> 1000		CCC(=O)Nc1cc(N2CCN(C(C)=O)CC2)ccc1Nc1nc(-n2ccc(C(=O)Nc3c(CC)cccc3CC)c2)c2cn[nH]c2n1	-3.96					
> 1000		C=C(F)C(=O)Nc1cc(N2CCN(C(C)=O)CC2)ccc1Nc1nc(-n2ccc(C(=O)Nc3c(CC)cccc3CC)c2)c2cn[nH]c2n1	-1.41					
4.03		CCc1cccc(CC)c1NC(=O)c1ccn(-c2nc(Nc3ccc(N4CCN(C(C)=O)CC4)cc3OC)nc3[nH]ncc23)c1						IC50 (MDA-MB-468 [8]): 371 nM
> 1000		CC#CC(=O)Nc1cc(N2CCOCC2)ccc1Nc1nc(-n2ccc(C(=O)Nc3c(CC)cccc3CC)c2)c2cn[nH]c2n1	-0.47					
	44.5	COc1cccc(-c2n[nH]c3nc(Nc4ccc(N5CCC(N(C)C)CC5)cc4OC)nc(OC4CCCC4)c23)c1	2.34	22.71	-1.1	4.83	22.33	
> 1000		C=CC(=O)Nc1cc(N2CCOCC2)ccc1Nc1nc(-c2cc3n(c2)CCN(c2c(CC)cccc2CC)C3=O)c2cn[nH]c2n1						IC50 (MDA-MB-468 [8]): 2620 nM
